Data: paper PMC6478789, “A chemical toolbox for the study of bromodomains and epigenetic signaling” (Nature Communications, 2019)
Where two headings read alike, the source gives them in different places. Blank lines part the entries; values can stand above or below the compound they belong to.

Assays:
Test in all cases: BROMOscan ligand-binding assay
BRD3(1) = BRD3(1) (Homo sapiens, UniProt Q15059)
Source text: (§1) BROMOscan is a binding assay based on the well-known KINOMEscan technology. This assay measures the binding of a DNA-tagged bromodomain to an immobilized BRD ligand. If an inhibitor is present, it will compete with the bromodomain binding to the immobilized ligand, resulting in reduction of a quantitative PCR (qPCR) signal in a dose-dependent manner.

BRD8(2) = BRD8(2) (Homo sapiens, UniProt Q9H0E9)
Source text: as §1

TRIM24 = biological target: T1, TRIM24 (Homo sapiens, UniProt O15164)
T1 sequence (O15164 899-1004 limits assumed): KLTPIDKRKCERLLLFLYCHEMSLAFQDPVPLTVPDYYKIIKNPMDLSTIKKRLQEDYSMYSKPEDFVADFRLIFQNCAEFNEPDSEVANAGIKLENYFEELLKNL
Source text: as §1

BRD4(2) = BRD4(2) (Homo sapiens, UniProt O60885)
Source text: as §1

BRD2(2) = BRD2(2) (Homo sapiens, UniProt P25440)
Sequence of BRD2(2) (P25440 344-453 limits assumed): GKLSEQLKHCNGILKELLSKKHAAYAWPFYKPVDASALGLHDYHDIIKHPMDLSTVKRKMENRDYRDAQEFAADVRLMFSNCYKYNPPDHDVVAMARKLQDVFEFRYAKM
Source text: as §1

BRD3(1,2) = BRD3(1,2) (Homo sapiens, UniProt Q15059)
Sequence of BRD3(1,2) (Q15059 24-416 limits assumed): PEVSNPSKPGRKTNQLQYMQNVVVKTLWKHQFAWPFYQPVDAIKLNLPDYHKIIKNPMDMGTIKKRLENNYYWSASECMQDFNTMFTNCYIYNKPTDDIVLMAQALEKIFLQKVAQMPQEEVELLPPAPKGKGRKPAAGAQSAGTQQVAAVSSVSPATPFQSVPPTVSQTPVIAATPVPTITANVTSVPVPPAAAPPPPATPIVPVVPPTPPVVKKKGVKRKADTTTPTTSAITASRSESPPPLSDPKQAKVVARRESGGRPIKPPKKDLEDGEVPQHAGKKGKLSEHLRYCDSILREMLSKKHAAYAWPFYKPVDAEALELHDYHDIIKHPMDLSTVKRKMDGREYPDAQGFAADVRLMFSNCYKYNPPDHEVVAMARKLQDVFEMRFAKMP
Source text: as §1

BRD2(1,2) = BRD2(1,2) (Homo sapiens, UniProt P25440)
Sequence of BRD2(1,2) (P25440 71-455 limits assumed): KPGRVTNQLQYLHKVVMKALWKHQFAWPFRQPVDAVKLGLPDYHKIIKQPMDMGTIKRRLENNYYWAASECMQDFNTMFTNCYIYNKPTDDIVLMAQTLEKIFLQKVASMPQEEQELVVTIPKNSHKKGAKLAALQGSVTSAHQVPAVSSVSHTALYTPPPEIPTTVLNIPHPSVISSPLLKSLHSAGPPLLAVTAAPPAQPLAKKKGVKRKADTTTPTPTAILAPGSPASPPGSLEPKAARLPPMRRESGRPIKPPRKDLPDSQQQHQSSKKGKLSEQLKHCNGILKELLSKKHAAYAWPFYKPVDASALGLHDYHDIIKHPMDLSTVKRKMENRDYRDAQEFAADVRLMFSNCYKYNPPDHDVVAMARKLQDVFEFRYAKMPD
Source text: as §1

TAF1(2) = biological target: T2, TAF1(2) (Homo sapiens, UniProt P21675)
T2 sequence (P21675 1519-1628 limits assumed): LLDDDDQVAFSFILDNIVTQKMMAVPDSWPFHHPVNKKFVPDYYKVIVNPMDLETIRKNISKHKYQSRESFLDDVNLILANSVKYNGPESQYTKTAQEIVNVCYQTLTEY
Source text: as §1

BRD7 = biological target: T3, BRD7 (Homo sapiens, UniProt Q9NPI1)
T3 sequence (Q9NPI1 131-235 limits assumed): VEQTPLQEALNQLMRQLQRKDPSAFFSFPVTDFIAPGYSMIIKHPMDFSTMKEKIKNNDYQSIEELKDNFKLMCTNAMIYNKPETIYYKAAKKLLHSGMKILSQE
Source text: as §1

[1] = KD (BROMOscan), sheet prints no unit (nM)

Sequence of BRD8(2) (Q9H0E9 1099-1207 limits assumed): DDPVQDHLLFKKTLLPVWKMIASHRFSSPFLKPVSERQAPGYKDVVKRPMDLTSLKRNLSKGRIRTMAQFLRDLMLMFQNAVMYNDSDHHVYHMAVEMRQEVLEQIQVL
Sequence of BRD3(1) (Q15059 34-140 limits assumed): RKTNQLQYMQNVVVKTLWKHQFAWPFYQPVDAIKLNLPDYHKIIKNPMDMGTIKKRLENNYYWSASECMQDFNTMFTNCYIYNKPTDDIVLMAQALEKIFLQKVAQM

Kd (BRD3(1); BROMOscan, BRD3(1)): 44000 nM
Kd (BRD8(2); BROMOscan, BRD8(2)): > 50000 nM
Kd (TRIM24; BROMOscan, TRIM24(Bromo.)): > 50000 nM
Kd (BRD4(2); BROMOscan, BRD4(2)): 25 µM
Kd (BRD2(2); BROMOscan, BRD2(2)): 9.2 µM
Kd (BRD3(1,2); BROMOscan, BRD3(1,2)): 47000 nM
Kd (BRD2(1,2); BROMOscan, BRD2(1,2)): 35 µM
Kd (TAF1(2); BROMOscan, TAF1(2)): > 50 µM
Compound: Cc1cc(=O)n(C)c2cc(N3C(=O)CC[C@H](NS(=O)(=O)CC(C)C)[C@H]3c3ccc(Cl)cc3)ccc12 [LP-99]

Kd (BRD3(1); BRD3(1)): 7200 nM
Kd (BRD8(2); BRD8(2)): > 50000 nM
Kd (TRIM24; TRIM24(Bromo.)): 1600 nM
Kd (BRD4(2); BRD4(2)): > 50 µM
Kd (BRD2(2); BRD2(2)): > 50 µM
Kd (BRD3(1,2); BRD3(1,2)): 12000 nM
Kd (BRD2(1,2); BRD2(1,2)): 12 µM
Kd (TAF1(2); TAF1(2)): 4.9 µM
Compound: COc1cc(C#N)ccc1S(=O)(=O)Nc1ccc2c(c1)cc(C)c(=O)n2C [NI 57]

Compound: CCCS(=O)(=O)c1nc(NC2CC2)cc(-c2ccc3c(ccn3C3CC(C)(C)NC(C)(C)C3)c2)n1 [NVS-CECR2-1]
Kd (BRD7): 6800 nM
Kd (BRD3(1)): > 30000 nM
Kd (BRD8(2)): > 30000 nM
Kd (TRIM24): > 30000 nM
Kd (BRD4(2)): 5.7 µM
Kd (BRD2(2)): > 30 µM
Kd (BRD3(1,2)): > 30000 nM
Kd (BRD2(1,2)): 16 µM
Kd (TAF1(2)): 2.1 µM

Kd (BRD7; BRD7): 1000 nM
Kd (BRD3(1); BRD3(1)): 5500 nM
Kd (BRD8(2); BRD8(2)): > 50000 nM
Kd (BRD8(2); read-out: KD (BROMOscan), sheet prints no unit (nM)): > 30000 nM
Kd (TRIM24; TRIM24(Bromo.)): 1900 nM
Kd (BRD2(2); BRD2(2)): 10 µM
Kd (BRD3(1,2); BRD3(1,2)): 4900 nM
Kd (BRD2(1,2); BRD2(1,2)): 5.6 µM
Kd (TAF1(2); TAF1(2)): 4.7 µM
Compound: COc1cc2c(cc1NS(=O)(=O)c1ccc(Br)cc1C)n(C)c(=O)n2C [OF-1]

Kd (BRD7; BROMOscan, BRD7): > 30000 nM
Kd (BRD3(1); BROMOscan, BRD3(1)): > 30000 nM
Kd (BRD8(2); BROMOscan, BRD8(2)): > 30000 nM
Kd (TRIM24; BROMOscan, TRIM24(Bromo.)): > 30000 nM
Kd (BRD4(2); BROMOscan, BRD4(2)): > 30 µM
Kd (BRD2(2); BROMOscan, BRD2(2)): > 30 µM
Kd (BRD3(1,2); BROMOscan, BRD3(1,2)): > 30000 nM
Kd (BRD2(1,2); BROMOscan, BRD2(1,2)): > 30 µM
Kd (TAF1(2); BROMOscan, TAF1(2)): > 30 µM
Compound: O=C(C=CN1[C@H]2CC[C@@H]1c1ncnc(NC3CC3)c1C2)c1ccccc1O [PFI-3 D1]

Kd (BRD7; [1]): > 30000 nM
Kd (BRD7; KD, BRD7): > 100000 nM
Kd (BRD3(1); [1]): > 30000 nM
Kd (BRD3(1); KD, BRD3(1)): > 100000 nM
Kd (BRD8(2); [1]): > 30000 nM
Kd (BRD8(2); KD, BRD8(2)): > 100000 nM
Kd (TRIM24; [1]): > 30000 nM
Kd (TRIM24; KD, TRIM24(Bromo.)): > 100000 nM
Kd (BRD3(1,2); [1]): > 30000 nM
Kd (BRD3(1,2); KD, BRD3(1,2)): > 100000 nM
Compound: O=C(C=CN1CC2CC1CN2c1ccccn1)c1ccccc1O (stereo not shown) [PFI-3]

Kd (BRD7; KD, BROMOscan, BRD7): 39000 nM
Kd (BRD3(1); KD, BROMOscan, BRD3(1)): 740 nM
Kd (BRD8(2); [1]): > 30000 nM
Kd (BRD8(2); KD, BROMOscan, BRD8(2)): > 100000 nM
Kd (TRIM24; KD, BROMOscan, TRIM24(Bromo.)): 12000 nM
Kd (BRD4(2)): 6.2 µM
Kd (BRD2(2)): 2.4 µM
Kd (BRD3(1,2); KD, BROMOscan, BRD3(1,2)): 1100 nM
Kd (BRD2(1,2)): 0.65 µM
Kd (TAF1(2)): 3.1 µM
Compound: COc1ccc(CCc2nc3cc(-c4c(C)noc4C)ccc3n2C[C@H](C)N2CCOCC2)cc1Cl [SGC-CBP30]

Kd (BRD7; KD, BRD7): > 1.4e+07 nM
Kd (BRD8(2); KD, BRD8(2)): > 1.4e+07 nM
Kd (TRIM24; KD, TRIM24(Bromo.)): > 1.4e+07 nM
Kd (BRD4(2)): > 14000 µM
Kd (BRD2(2)): > 14000 µM
Kd (BRD2(1,2)): 7300 µM
Kd (TAF1(2)): > 14000 µM
Compound: O=C(O)c1ccccc1O [Salicylic Acid]
